Data reported in ChEMBL document CHEMBL1201862, “PubChem BioAssay data set” (2004).
Activity calls are given as the source filed them.

Assays:
[1] = target: T1, Coagulation factor XII (Homo sapiens, UniProt P00748); format: functional;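 note: activated factor XIIa alpha cleaving a fluorogenic AMC peptide substrate; inhibitor potency from loss of enzyme activity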
T1 sequence (P00748 whole entry): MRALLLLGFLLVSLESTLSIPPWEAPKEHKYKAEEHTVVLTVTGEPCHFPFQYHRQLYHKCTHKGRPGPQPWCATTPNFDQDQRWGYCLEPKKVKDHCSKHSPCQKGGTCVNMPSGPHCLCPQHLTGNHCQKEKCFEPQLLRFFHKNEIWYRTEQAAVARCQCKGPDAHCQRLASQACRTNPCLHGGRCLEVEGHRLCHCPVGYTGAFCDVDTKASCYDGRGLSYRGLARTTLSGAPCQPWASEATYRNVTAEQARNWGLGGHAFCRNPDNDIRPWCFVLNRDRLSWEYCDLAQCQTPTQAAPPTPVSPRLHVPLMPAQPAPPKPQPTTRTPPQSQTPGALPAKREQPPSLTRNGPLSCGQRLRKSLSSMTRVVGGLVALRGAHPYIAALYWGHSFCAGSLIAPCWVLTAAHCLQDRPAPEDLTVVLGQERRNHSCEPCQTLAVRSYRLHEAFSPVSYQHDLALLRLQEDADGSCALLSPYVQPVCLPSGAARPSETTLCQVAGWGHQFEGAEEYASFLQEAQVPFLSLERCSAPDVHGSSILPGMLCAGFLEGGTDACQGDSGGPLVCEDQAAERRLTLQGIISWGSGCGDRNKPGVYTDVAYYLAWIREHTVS

[2] = target: T2, Ubiquitin-conjugating enzyme E2 N (Homo sapiens, UniProt P61088); format: functional;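 note: Dose-response confirmation in a TR-FRET assay detecting UBC13-driven polyubiquitin chain formation, inhibition measured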
T2 sequence (P61088 whole entry): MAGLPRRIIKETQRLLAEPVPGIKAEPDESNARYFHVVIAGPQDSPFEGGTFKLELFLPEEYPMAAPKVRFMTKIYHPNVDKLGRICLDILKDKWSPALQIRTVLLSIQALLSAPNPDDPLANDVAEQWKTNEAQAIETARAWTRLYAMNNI

[3] = target: T3, Fatty acid synthase (Homo sapiens, UniProt P49327); assay: FAS thioesterase domain inhibitors, dose response, biochemical, kinetic fluorescence intensity (AID 624326); format: functional;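 note: rate of fluorescence rise from hydrolysis of a fluorogenic O-methyl fluorescein ester substrate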
[4] = target: T3, Fatty acid synthase; assay: FAS thioesterase domain inhibitors, dose response, biochemical, endpoint fluorescence intensity, uHTS hits (AID 624327); format: functional;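 note: fluorescence from hydrolysis of an O-methyl fluorescein acyl ester substrate by the enzyme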
[5] = system: HEK293; assay: inhibitors of LMP1-driven NF-kB reporter, dose response, cell-based, HEK293, luciferase, cherry-pick (AID 588343); format: functional; conditions: Homo sapiens
[6] = Luminescence Cell-Based Dose Confirmation HTS to Identify Inhibitors of Platelet Dense Granule Release. [Related pubchem assays: 1663 (Primary HTS), 1678 (Summary of Project)]; format: functional
[7] = target: Luciferin 4-monooxygenase (Photinus pyralis, UniProt P08659); assay: firefly luciferase enzyme inhibitors, dose response, biochemical, luminescence (AID 1891)
[8] = system: H9c2; assay: cells; format: functional, cell-based; conditions: Rattus norvegicus, H9c2, Myocardium;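 note: confirmatory concentration-response retest of ultra-high-throughput screening hits for modulation of myocardial damage; cell death induced by hydrogen peroxide oxidative stress; compound pretreatment for 60 min then peroxide exposure for 2 h; potency is for protecting the cells against peroxide damage rather than for killing them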
[9] = inhibitors of firefly luciferase expression or activity, dose response, H4 neuroglioma cells, luminescence (AID 1990); format: functional, cell-based
[10] = Luminescence Cell-Based Dose Response HTS to Identify Inhibitors of 5'UTR Stem-Loop Driven Prion Protein mRNA Translation in H4 Neuroglioblastoma Cells. [Related pubchem assays: 1827 (Project Summary), 1813 (Primary HTS)]; format: functional
[11] = MC4R antagonists, dose response, counter-screen for LGR2 antagonist project, cell-based, plate reader, cherry pick (AID 743444); format: functional;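 note: transfected HEK 293 cells stimulated with alpha-MSH peptide; potency of inhibitors of the alpha-MSH evoked signal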
[12] = inhibitors of SNCA 5'UTR-driven reporter translation, confirmation, H4 neuroglioma cells, luminescence (AID 1988); format: functional, cell-based
[13] = target: T4, Protein skinhead-1 (Caenorhabditis elegans, UniProt P34707); format: functional
T4 sequence (P34707 whole entry): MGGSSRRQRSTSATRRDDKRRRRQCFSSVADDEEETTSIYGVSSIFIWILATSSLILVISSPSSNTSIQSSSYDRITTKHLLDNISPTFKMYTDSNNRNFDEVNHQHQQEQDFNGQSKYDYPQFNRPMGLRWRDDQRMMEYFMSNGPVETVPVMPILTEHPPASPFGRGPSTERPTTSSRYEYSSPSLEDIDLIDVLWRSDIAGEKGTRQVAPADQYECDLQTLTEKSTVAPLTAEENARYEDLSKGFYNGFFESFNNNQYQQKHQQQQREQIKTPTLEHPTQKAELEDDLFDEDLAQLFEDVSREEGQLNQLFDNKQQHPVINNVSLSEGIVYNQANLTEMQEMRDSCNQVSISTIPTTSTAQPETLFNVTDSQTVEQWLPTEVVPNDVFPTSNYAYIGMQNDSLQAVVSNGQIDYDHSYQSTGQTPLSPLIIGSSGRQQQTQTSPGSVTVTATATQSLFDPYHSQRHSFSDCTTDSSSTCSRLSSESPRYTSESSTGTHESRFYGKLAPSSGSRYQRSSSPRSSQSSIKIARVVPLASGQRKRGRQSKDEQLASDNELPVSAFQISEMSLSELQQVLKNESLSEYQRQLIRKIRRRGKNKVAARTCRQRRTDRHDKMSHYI

[14] = LGR2 antagonists, dose response, cell-based, HEK293, CRE-luciferase reporter, cherry pick, set 2 (AID 743343); format: functional;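 note: transfected cells were stimulated with diluted bursicon conditioned medium after compound addition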
[15] = target: T5, Calpain-2 catalytic subunit (Sus scrofa, UniProt P43367); assay: pig calpain II inhibitor potency, dose response, biochemical, fluorogenic peptide substrate (AID 1420); format: functional
T5 sequence (P43367 whole entry): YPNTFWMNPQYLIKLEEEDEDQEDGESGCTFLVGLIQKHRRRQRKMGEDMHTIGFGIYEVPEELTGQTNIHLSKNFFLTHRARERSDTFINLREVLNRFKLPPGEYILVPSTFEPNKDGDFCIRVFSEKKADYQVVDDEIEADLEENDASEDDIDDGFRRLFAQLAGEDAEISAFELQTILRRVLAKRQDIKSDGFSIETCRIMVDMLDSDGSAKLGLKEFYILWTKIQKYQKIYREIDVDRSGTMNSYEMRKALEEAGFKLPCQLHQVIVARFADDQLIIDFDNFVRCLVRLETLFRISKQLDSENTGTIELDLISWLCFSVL

T3 sequence (P49327 whole entry, the tested form may be a part): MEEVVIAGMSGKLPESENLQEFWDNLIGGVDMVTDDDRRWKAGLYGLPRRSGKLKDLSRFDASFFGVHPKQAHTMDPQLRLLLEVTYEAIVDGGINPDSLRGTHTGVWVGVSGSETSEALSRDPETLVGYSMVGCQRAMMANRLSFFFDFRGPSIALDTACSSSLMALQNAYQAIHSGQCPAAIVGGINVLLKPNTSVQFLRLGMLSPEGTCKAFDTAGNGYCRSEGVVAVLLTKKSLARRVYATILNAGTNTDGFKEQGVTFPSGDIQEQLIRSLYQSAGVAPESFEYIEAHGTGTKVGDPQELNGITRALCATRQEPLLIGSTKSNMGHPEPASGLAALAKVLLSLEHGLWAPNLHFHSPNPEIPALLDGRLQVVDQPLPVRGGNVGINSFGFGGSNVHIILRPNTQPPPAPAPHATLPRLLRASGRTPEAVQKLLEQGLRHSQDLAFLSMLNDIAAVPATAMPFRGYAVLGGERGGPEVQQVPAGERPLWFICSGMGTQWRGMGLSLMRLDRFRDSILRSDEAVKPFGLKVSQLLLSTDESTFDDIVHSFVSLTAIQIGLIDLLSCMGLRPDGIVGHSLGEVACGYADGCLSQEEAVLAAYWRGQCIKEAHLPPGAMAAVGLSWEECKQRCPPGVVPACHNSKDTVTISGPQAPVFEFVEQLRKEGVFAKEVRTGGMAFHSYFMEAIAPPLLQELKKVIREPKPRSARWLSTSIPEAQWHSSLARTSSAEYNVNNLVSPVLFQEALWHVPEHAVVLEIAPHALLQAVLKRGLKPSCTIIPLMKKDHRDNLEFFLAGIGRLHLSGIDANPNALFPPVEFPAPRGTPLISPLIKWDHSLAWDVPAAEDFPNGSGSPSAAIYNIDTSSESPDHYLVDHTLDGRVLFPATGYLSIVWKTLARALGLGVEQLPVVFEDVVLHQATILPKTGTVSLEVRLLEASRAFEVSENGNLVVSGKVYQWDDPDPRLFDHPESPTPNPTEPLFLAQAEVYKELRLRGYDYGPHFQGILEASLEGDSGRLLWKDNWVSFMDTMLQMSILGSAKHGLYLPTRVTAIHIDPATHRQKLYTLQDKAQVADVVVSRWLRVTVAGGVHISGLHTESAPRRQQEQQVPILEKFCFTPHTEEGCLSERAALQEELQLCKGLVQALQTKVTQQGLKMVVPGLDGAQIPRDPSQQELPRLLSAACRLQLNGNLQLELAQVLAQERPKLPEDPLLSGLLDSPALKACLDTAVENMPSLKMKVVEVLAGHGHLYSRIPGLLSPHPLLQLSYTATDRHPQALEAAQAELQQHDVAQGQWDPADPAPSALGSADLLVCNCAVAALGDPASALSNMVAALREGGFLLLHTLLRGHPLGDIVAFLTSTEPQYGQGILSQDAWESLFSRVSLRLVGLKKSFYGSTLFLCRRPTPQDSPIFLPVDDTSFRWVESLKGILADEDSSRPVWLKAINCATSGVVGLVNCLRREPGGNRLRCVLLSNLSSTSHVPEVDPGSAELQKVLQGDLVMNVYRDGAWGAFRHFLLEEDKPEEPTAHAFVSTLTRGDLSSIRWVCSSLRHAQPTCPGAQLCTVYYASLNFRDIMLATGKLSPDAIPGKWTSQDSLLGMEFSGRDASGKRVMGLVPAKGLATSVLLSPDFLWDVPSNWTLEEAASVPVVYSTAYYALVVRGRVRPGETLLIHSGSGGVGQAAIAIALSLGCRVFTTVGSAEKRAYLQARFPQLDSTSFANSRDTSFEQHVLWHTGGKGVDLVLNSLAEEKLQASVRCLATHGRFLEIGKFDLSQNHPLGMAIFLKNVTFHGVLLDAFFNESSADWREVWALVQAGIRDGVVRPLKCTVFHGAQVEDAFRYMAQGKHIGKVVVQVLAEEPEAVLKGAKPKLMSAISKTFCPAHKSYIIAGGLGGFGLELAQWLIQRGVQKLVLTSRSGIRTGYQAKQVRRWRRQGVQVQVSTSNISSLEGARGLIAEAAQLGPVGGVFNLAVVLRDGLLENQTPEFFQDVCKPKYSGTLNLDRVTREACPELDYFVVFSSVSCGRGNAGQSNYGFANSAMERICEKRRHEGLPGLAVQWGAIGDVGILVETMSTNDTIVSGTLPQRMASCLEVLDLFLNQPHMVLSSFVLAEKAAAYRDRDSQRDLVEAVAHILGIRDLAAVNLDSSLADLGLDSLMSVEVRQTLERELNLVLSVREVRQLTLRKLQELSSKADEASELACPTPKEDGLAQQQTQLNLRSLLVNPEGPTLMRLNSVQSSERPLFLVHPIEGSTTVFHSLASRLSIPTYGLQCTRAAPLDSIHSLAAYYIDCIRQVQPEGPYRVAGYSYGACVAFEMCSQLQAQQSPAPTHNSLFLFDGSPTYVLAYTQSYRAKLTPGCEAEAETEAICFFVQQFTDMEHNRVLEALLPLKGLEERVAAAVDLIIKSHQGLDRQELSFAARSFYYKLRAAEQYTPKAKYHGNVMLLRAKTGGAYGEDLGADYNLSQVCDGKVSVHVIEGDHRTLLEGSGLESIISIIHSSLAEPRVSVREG
Sequence of Luciferin 4-monooxygenase (P08659 whole entry): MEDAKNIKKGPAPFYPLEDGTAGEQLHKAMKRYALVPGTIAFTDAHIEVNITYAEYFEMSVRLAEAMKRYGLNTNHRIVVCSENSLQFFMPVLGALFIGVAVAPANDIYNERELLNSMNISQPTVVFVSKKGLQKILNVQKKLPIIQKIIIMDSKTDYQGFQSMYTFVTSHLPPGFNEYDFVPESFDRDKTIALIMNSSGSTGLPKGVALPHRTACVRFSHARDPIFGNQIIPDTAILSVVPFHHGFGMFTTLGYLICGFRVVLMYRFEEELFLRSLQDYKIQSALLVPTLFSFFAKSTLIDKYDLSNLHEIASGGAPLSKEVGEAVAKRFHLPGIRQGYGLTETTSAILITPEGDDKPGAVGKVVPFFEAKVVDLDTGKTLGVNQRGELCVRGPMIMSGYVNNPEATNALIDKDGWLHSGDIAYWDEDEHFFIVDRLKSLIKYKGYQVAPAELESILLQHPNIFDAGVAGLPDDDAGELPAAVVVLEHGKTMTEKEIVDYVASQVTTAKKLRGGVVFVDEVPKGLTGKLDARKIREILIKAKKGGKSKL

In the case of `COC(=O)c1c(NC(=O)c2ccc(Br)s2)sc2c1CCC2`, the IC50 [1] is reported as 44.4 µM (active).
In the case of `O=C1c2cc(Cl)ccc2OC2(CCNCC2)C12CC(c1ccc(Cl)cc1)=NO2` (centres undefined), the IC50 [2] is reported as > 20 µM (inactive).
With `O=C(CCNc1ccc(Br)cc1)c1cccc([N+](=O)[O-])c1` the IC50 [3] was 7.64 µM (active) and the IC50 [4] was 13.3 µM (active).
In the case of `COc1ccc(C(=O)OC(C)C(=O)NC(C)CCc2ccccc2)cc1[N+](=O)[O-]` (centres undefined), the IC50 [3] is reported as 17.9 µM (active) and the IC50 [4] is reported as 19.1 µM (active).
For `O=C(NCc1ccc2c3c(cccc13)C(=O)N2)c1cccs1`, the IC50 [1] was > 50 µM (inactive).
For `Cc1c(NC(=O)c2ccc(Br)o2)cccc1C(=O)O`, the IC50 [1] was > 50 µM (inactive).
With `COc1ccc(Nc2oc(COc3ccc(Cl)cc3)nc2C#N)cc1` the AC50 [5] was 4.08 µM (active).
For `Cc1ccccc1Cn1cnc2c(NS(C)(=O)=O)c(C)c(C)cc21`, the IC50 [1] was > 50 µM (inactive).
In the case of `COC(=O)c1sc(NC(=O)c2ccc(OC)cc2OC)nc1C`, the EC50 [6] is reported as 749 nM (active), the EC50 [7] is reported as 251 nM (active) and the AC50 [5] is reported as 0.545 µM (active).
In the case of `CNC(=O)COC(=O)/C=C/c1cn(-c2ccccc2)nc1-c1ccc(C)o1`, the IC50 [8] is reported as > 79 µM (inactive) and the IC50 [2] is reported as > 20 µM (inactive).
With `COc1cc(SC)ccc1C(=O)Nc1ccc(Cl)cn1` the EC50 [9] was 4.03 µM (inconclusive), the EC50 [10] was 1.33 µM (active) and the AC50 [11] was 1.45 µM (active). The EC50 [12] was 497 nM (active), the IC50 [13] was > 100 µM (inactive) and the AC50 [14] was 1.59 µM (active).
With `CCc1nc2ccccc2c(C(=O)OCCN2C(=O)c3ccccc3C2=O)c1C` the IC50 [2] was > 20 µM (inactive).
For `CCn1cc(C(=O)NCc2cccnc2)c(=O)c2cc(F)c(N3CCN(C(=O)c4ccco4)CC3)cc21`, the IC50 [1] was > 50 µM (inactive).
With `O=C(COC(=O)c1cc([N+](=O)[O-])ccc1N1CCOCC1)NCc1ccc(F)cc1` the IC50 [3] was 1.33 µM (active) and the IC50 [4] was 1.44 µM (active).
For `Cc1noc(C)c1CSc1nc2ccccc2c(=O)n1-c1ccc(F)cc1F`, the IC50 [15] was 4.76 µM (not active) and the IC50 [1] was > 50 µM (inactive).
In the case of `Cc1c(Br)c([N+](=O)[O-])nn1CCCC(=O)N1CCN(c2ccccc2)CC1`, the IC50 [3] is reported as 13.1 µM (active) and the IC50 [4] is reported as 11.6 µM (active).
